According to ChEMBL document CHEMBL1151292, “Antineoplastic activity and cytotoxicity of flavones, isoflavones, and flavanones” (1979):
Converted amounts (≈) assume the structure as drawn. The source made the active and inactive calls. The rule behind the calls is not given here.

Assays:
[1] = system: L1210; experiment: In vivo antitumor activity against mouse L1210 cells; format: functional, organism-based
[2] = system: KB; experiment: Cytotoxicity against human KB cells; format: functional; details: read-out: ED50 (the source's name)
[3] = system: CCRF S-180; experiment: In vivo antitumor activity against mouse S180 cells; format: functional, organism-based
[4] = system: CA-755; experiment: In vivo antitumor activity against mouse CA-755 cells; format: functional, organism-based

SMILES | Activity [1] | EC50 [2] [µg/mL] | also measured
COc1ccc2c(c1)OC(OC)(c1ccc(OC)c(OC)c1)C(O)(OC)C2=O (configuration not stated) | inactive | – | –
O=c1c(O)c(-c2ccccc2)oc2cc(O)cc(O)c12 [GALANGIN] | – | > 100 | –
O/N=c1/cc(-c2ccccc2)oc2ccccc12 | inactive | – | Activity [3]: inactive
Cc1ccc(-c2oc3ccc(Cl)cc3c(=O)c2Cl)c(C(C)C)c1 | – | 22 (≈ 63.4 µM) | –
Cc1ccc2oc(-c3ccccc3)c(Cl)c(=O)c2c1 | – | > 100 | –
C[C@@H]1O[C@@H](OC[C@H]2O[C@@H](Oc3c(-c4ccc(O)c(O)c4)oc4cc(O)cc(O)c4c3=O)[C@H](O)[C@@H](O)[C@@H]2O)[C@H](O)[C@H](O)[C@H]1O [RUTIN] | – | 26 (≈ 42.6 µM) | –
COC1(c2ccccc2)Oc2ccccc2C(=O)C1(O)C[N+](=O)[O-] (configuration not stated) | inactive | – | –
COc1ccc(-c2cc(=O)c3cc(OC)c(OC)cc3o2)cc1O | – | 2 (≈ 6.09 µM) | –
O=c1c(Cl)c(-c2ccccc2)oc2ccc(Cl)cc12 | – | > 100 | –
COc1c(-c2ccc(O)c(O)c2)oc2cc(O)cc(O)c2c1=O [3-O-METHYLQUERCETIN] | – | 17 (≈ 53.8 µM) | –
COc1ccc(-c2cc(=O)c3c(O)cccc3o2)cc1 | inactive | – | –
COc1cc2c(c(O[C@@H]3O[C@H](CO)[C@@H](O)[C@H](O)[C@H]3O)c1)C(=O)CC(c1ccc(O)cc1)O2 (some centres not stated) | – | > 100 | Activity [3]: inactive
C[C@@H]1O[C@@H](OC[C@H]2O[C@@H](Oc3c(-c4ccc(O)c(O)c4)oc4cc(O)cc(O)c4c3=O)[C@H](O)[C@@H](O)[C@@H]2O)[C@H](O)[C@H](O)[C@H]1O.Cl | – | > 100 | –
COc1cc(O)c(C2CC(=O)c3c(O)cc(O[C@@H]4O[C@H](CO[C@@H]5O[C@@H](C)[C@H](O)[C@@H](O)[C@H]5O)[C@@H](O)[C@H](O)[C@H]4O)cc3O2)cc1O (some centres not stated) | inactive | > 100 | –
Cc1c(O)cc2c(c1O)C(=O)CC(c1ccc(O)cc1)O2 (configuration not stated) | inactive | 57 (≈ 199 µM) | –
COc1cc2c(=O)cc(-c3ccc(O)c(O)c3)oc2cc1O | – | 18 (≈ 59.9 µM) | –
COc1ccc(-c2oc3ccccc3c(=O)c2O)cc1OC | inactive | – | –
Cc1ccc(C(C)C)c(-c2oc3ccc(Cl)cc3c(=O)c2Cl)c1 | – | 60 (≈ 173 µM) | –
O=c1cc(-c2ccccc2)oc2cc(F)ccc12 [7-FLUOROFLAVONE] | – | 22 (≈ 91.6 µM) | –
COc1ccc(-c2cc(=O)c3c(C)cc(O)cc3o2)cc1 | inactive | – | –
COc1cc(-c2cc(=O)c3ccc(O)c([C@@H]4O[C@H](CO)[C@@H](O)[C@H](O)[C@H]4O)c3o2)ccc1O | inactive | – | –
C=CCOc1ccc(-c2cc(=O)c3c(OC)c(OC)c(OC)c(OC)c3o2)cc1 | – | 26 (≈ 65.3 µM) | –
Cc1cc(C)c(-c2oc3ccc(Cl)cc3c(=O)c2Cl)c(C)c1 | – | > 100 | Activity [3]: Active

SMILES | Activity [1] | EC50 [2] [µg/mL] | also measured
COc1cc(OC)c(-c2cc(=O)c3ccccc3o2)cc1Br | – | – | Activity [4]: inactive; Activity [3]: inactive
O=c1cc(-c2cccc(O)c2)oc2ccccc12 | inactive | 8.5 (≈ 35.7 µM) | –
O=c1cc(-c2ccc3c(c2)OCO3)oc2ccccc12 | inactive | – | –
COc1ccc(-c2coc3cc(O)ccc3c2=O)cc1 | inactive | – | –
O=c1cc(-c2ccc(O)cc2)oc2cc(O[C@@H]3O[C@H](CO)[C@@H](O)[C@H](O)[C@H]3O)cc(O)c12 [APIGETRIN] | – | > 100 | Activity [3]: inactive
COc1ccc2c(c1)OC(OC)(c1ccccc1)C(O)(O)C2=O (configuration not stated) | – | 20 (≈ 63.2 µM) | –
COc1cc(C2CC(=O)c3ccccc3O2)ccc1O (configuration not stated) | inactive | – | Activity [3]: inactive
Cc1c(-c2ccccc2)oc2c(C(=O)OCCN3CCCCC3)cccc2c1=O.Cl [FLAVOXATE HYDROCHLORIDE] | inactive | > 100 | –
COc1cc(OC)c2c(=O)c(O)c(-c3ccc(OC)c(OC)c3)oc2c1 | inactive | – | –
CS(=O)(=O)Oc1cccc(-c2cc(=O)c3ccccc3o2)c1 | – | > 100 | –
COc1ccc(C2(OC)Oc3ccccc3C(=O)C2(O)OC)cc1OC (configuration not stated) | inactive | – | –
O=c1cc(-c2ccc(O)c(O)c2)oc2c([C@@H]3O[C@H](CO)[C@@H](O)[C@H](O)[C@H]3O)c(O)cc(O)c12 [ORIENTIN] | – | 25 (≈ 55.8 µM) | –
COc1cc(-c2cc(=O)c3c(O)cc(O)cc3o2)cc(OC)c1OC | inactive | – | –
COc1ccc(-c2cc(=O)c3c(O)cc(C)cc3o2)cc1OC | inactive | – | –
COC1(c2ccccc2)Oc2ccccc2C(=O)C1(O)O (configuration not stated) | – | 19 (≈ 66.4 µM) | –
O=c1c(-c2ccccc2)coc2ccccc12 | inactive | – | –
COc1cc(OC)c(-c2cc(=O)c3c(O)cc(O)cc3o2)c(OC)c1 | inactive | – | –
C[C@@H]1O[C@@H](OC[C@H]2O[C@@H](Oc3cc(O)c4c(c3)OC(c3ccc(O)cc3)CC4=O)[C@H](O)[C@@H](O)[C@@H]2O)[C@H](O)[C@H](O)[C@H]1O (some centres not stated) | – | – | Activity [3]: inactive
COc1c(OC)c(OC)c2c(=O)cc(-c3ccc(OC(C)C)cc3)oc2c1OC | – | > 100 | –
COC1(O)C(=O)c2ccccc2OC1(OC)c1ccccc1 (configuration not stated) | inactive | 34 (≈ 113 µM) | –
COc1ccc2c(=O)c(C)c(-c3ccccc3)oc2c1CN(C)C.Cl [DIMEFLINE HYDROCHLORIDE] | inactive | 22 | –
COc1ccc2c(=O)c(O)c(-c3ccccc3)oc2c1 | – | 26 (≈ 96.9 µM) | –
